Reference: US9394297B2, “Amides as pim inhibitors” (AMGEN INC., priority 2012, dated 2016)
pIC50: −log10 of the molar value. Like-named read-outs stand apart in the source and are kept apart here.

Legend:
Pim-1 = Pim-1 (Homo sapiens (Human), UniProt P11309); experiment: Pim-Mn enzyme assay (HTRF, 384-well), Pim-1; assay type: biochemical; conditions: Pim-1 enzyme 5 pM, ATP 1.5 μM, BAD (S112) 0.5 μM, HTRF, 22-point curve; read-out: Pim-1-Mn IC50 IP
Pim-2 = Pim-2 (Homo sapiens (Human), UniProt Q9P1W9); experiment: Pim-Mn enzyme assay (HTRF, 384-well), Pim-2; assay type: biochemical; conditions: read-out: Pim-2-Mn IC50 IP
Chain of Pim-2 (Q9P1W9 whole entry): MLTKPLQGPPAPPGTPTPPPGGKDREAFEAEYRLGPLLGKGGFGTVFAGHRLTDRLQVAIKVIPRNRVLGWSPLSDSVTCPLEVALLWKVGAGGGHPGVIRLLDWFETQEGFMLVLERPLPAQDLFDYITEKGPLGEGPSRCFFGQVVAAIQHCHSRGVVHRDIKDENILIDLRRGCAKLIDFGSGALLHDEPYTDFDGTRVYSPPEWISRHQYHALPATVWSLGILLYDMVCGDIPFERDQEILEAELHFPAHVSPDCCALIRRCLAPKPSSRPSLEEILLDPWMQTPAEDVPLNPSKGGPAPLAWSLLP

KMS-12-BM cell lines = experiment: KMS12 #2 flow cytometry assay (phospho-BAD Ser112); assay type: cell-based; conditions: KMS-12-BM cells, pBAD Ser112 by flow cytometry, 110 min with compound, read-out: KMS-12-Flow IC50 IP
[1] = Pim-2 enzyme 0.5 pM, ATP 1.5 μM, BAD (S112) 0.5 μM, HTRF, 22-point curve

Chain of Pim-1 (P11309 whole entry): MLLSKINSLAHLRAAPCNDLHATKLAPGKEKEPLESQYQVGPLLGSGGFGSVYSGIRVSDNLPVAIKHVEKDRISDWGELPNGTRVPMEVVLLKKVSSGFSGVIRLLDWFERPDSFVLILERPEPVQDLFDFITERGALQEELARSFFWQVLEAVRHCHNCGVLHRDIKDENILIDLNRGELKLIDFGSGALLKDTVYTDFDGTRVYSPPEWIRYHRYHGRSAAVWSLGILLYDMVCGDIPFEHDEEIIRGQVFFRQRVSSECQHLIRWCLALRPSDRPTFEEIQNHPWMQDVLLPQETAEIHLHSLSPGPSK

Row | Structure (SMILES) | pIC50 (Pim-1) | pIC50 (Pim-2; [1]) | pIC50 (KMS-12-BM cell lines; Homo sapiens, 110 min) | pIC50 (KMS-12-BM cell lines) | pIC50 (Pim-2)
1 | CC(C)(C)Nc1nc2c(-c3cc4c([nH]3)CCNC4=O)cccc2nc1C#N [Example 309, 3-(tert-butylamino)-5-(4-oxo-4,5,6,7-tetrahydro-1H-pyrrolo[3,2-c]pyridin-2-yl)quinoxaline-2-carbonitrile] | 8.45 | 8.42 | 5.94 |  | 
2 | Cc1nc2ccc(F)c(-c3cc4c([nH]3)CNC4=O)c2nc1NC(C)(C)C [Example 296, 2-(3-(tert-butylamino)-6-fluoro-2-methyl-5-quinoxalinyl)-5,6-dihydropyrrolo[3,4-b]pyrrol-4(1H)-one] | 9.29 | 9.30 | 7.44 |  | 
3 | Cc1nc2cccc(-c3cc4c([nH]3)CCNC4=O)c2nc1N[C@H]1C[C@@H](NC(=O)OC(C)(C)C)C1 [Example 434, tert-butyl ((1s,3s)-3-((3-methyl-8-(4-oxo-4,5,6,7-tetrahydro-1H-pyrrolo[3,2-c]pyridin-2-yl)quinoxalin-2-yl)amino)cyclobutyl)carbamate] | 7.74 | 7.76 |  | 5.88 | 
4 | COCCOCCn1c(NC(C)(C)C)nc2c(-c3cc4c([nH]3)[C@@H](C)NC4=O)cccc2c1=O [Example 474, 2-(tert-butylamino)-3-(2-(2-methoxyethoxyl)ethyl)-8-((6R)-6-methyl-4-oxo-1,4,5,6-tetrahydropyrrolo[3,4-b]pyrrol-2-yl)-4(3H)-quinazolinone] | 8.87 | 9.04 | 6.92 |  | 
5 | Cc1nc2cccc(-c3cc4c([nH]3)C3(CC3)NC4=O)c2nc1NC(C)(C)C [Example 324, 2′-(3-(tert-butylamino)-2-methyl-5-quinoxalinyl)-1′H-spiro[cyclopropane-1,6′-pyrrolo[3,4-b]pyrrol]-4′(5′H)-one] | 9.86 |  | 7.04 |  | 9.65
6 | Cc1nc2cccc(-c3cc4c([nH]3)CCNC4=O)c2nc1NC(C)(C)CN [Example 341, 2-(3-((2-amino-1,1-dimethylethyl)amino)-2-methyl-5-quinoxalinyl)-1,5,6,7-tetrahydro-4H-pyrrolo[3,2-c]pyridin-4-one] | 8.16 |  | 5.11 |  | 7.97

Further compounds by rising pIC50 (Pim-1), results first:

Row | pIC50 (Pim-1) | pIC50 (Pim-2; [1]) | pIC50 (KMS-12-BM cell lines; Homo sapiens, 110 min) | pIC50 (KMS-12-BM cell lines) | Structure (SMILES) | pIC50 (Pim-2)
7 | 7.45 | 6.87 | 5.46 |  | Cc1nc2cccc(-c3cc4c([nH]3)CCNC4=O)c2nc1NC(C)(C)CN1CCOCC1 [Example 457, 2-(3-((1,1-dimethyl-2-(4-morpholinyl)ethyl)amino)-2-methyl-5-quinoxalinyl)-1,5,6,7-tetrahydro-4H-pyrrolo[3,2-c]pyridin-4-one] | 
8 | 7.94 | 7.44 | 4.91 |  | COCCN(CCOC)CCC(C)(C)Nc1nc2c(-c3cc4c([nH]3)CNC4=O)cccc2c(=O)n1C [Example 473, 2-((4-(bis(2-methoxyethyl)amino)-2-methylbutan-2-yl)amino)-3-methyl-8-(4-oxo-1,4,5,6-tetrahydropyrrolo[3,4-b]pyrrol-2-yl)quinazolin-4(3H)-one] | 
9 | 8.98 | 8.90 | 6.75 |  | CC(C)(C)Nc1nc2c(-c3cc4c([nH]3)CCNC4=O)cccc2nc1/C=N/O [Example 308, (E)-3-(tert-butylamino)-5-(4-oxo-4,5,6,7-tetrahydro-1H-pyrrolo[3,2-c]pyridin-2-yl)quinoxaline-2-carbaldehyde oxime] | 
10 | 9.73 | 9.74 | 8.07 |  | Cc1nc2cccc(-c3cc4c([nH]3)[C@@H](C)NC4=O)c2nc1NC1(C)CC1 [Example 333, (6R)-6-methyl-2-(2-methyl-3-((1-methylcyclopropyl)amino)-5-quinoxalinyl)-5,6-dihydropyrrolo[3,4-b]pyrrol-4(1H)-one] | 
